How the values were obtained:
[1] = system: purified X. dendrorhous enzyme (F-3); assay: Glycosyltransferase activity: incubating maltose (240 g/l) with the purified X. dendrorhous enzyme (F-3), HPLC analysis; type: biochemical, Xanthophyllomyces dendrorhous; conditions: for composition of the system: after 288 hours, maltose 240 g/l, 0.7 μg α-glucosidase, pH 5.4, 40° C., 200 rpm; for Composition of the reaction mixture: 240 g maltose/l, 0.2 M sodium acetate pH 5.4, 40° C., 150 rpm
Procedure: 0.7 μg of α-glucosidase from the pure solution of α-glucosidase corresponding to fraction 3 of TABLE 2 were added. […] Aliquots were extracted at different times and incubated for 5 minutes at 80° C. to inactivate the enzyme. They were diluted to 1:4 (v/v) with water, centrifuged for 5 minutes at 6000 rpm in an Eppendorf tube with a 0.45 μam filter and analyzed by HPLC liquid chromatography.

[2] = system: X. dendrorhous α-glucosidase, enzyme purified to homogeneity (F-3); assay: α-glucosidase (hydrolytic) activity of the X. dendrorhous F-3 fraction on different substrates; type: biochemical, Xanthophyllomyces dendrorhous; conditions: for hydrolytic activity observed on substrate: enzyme purified to homogeneity (F-3); for Specific activity: F-3 fraction, purified protein, 1% concentration of substrate
Procedure: (§1) The cell-free fraction was obtained by centrifugation (F-0) and α-glucosidase activity in this fraction was tested, assessing the release of glucose on different substrates. A […] test and standard methodology were used. The released glucose was quantified using the glucose oxidase-peroxidase coupled reaction: 0.4 ml of the solution to be assessed was mixed with 0.1 ml of A:B solution (20:1) (A: 0.85 U/ml glucose oxidase, 0.40 U/ml peroxidase in sodium phosphate buffer pH 5; B: 0.6% O-dianisidine). It was incubated for 30 minutes at 37° C. and spectrophotometrically quantified at 450 nm. A standard glucose curve (1 to 100 μg/ml) was used. The α-glucosidase activity unit is defined as the amount of enzyme required to release 20 μg/ml of glucose under the described conditions.
The hydrolytic activity of the enzyme purified to homogeneity (F-3) following the described process was tested on different substrates.

[3] = system: X. dendrorhous extracellular fraction α-glucosidase; assay: α-glucosidase activity of the X. dendrorhous extracellular (cell-free, F-0) fraction on different glucose polymers, glucose release by glucose oxidase-peroxidase; type: biochemical, Xanthophyllomyces dendrorhous; conditions: for α-glucosidase activity detected on substrate: cell-free fraction (F-0); for Specific activity: X. dendrorhous extracellular fraction (F-0), release of glucose
Procedure: The production of α-glucosidase activity was analyzed in X. dendrorhous cultures grown in minimal medium for yeasts: 0.7% YNB (Yeast Nitrogen Base w/o Amino acids, DIFCO) (w/v), 2% carbon source. The cultures were carried out in glass flasks incubated at 24° C. and with constant stirring at 160 rpm.
as §1

[4] = molecular target: X. dendrorhous α-glucosidase (purified enzyme) (Phaffia rhodozyma, UniProt A0A0U2M4R6); assay: Kinetic constants of X. dendrorhous α-glucosidase glycosylhydrolase activity; type: biochemical, Xanthophyllomyces dendrorhous; conditions: 30 minutes, 100 ng of enzyme; starch supplied by Avebe, 8100 Da
Sequence of X. dendrorhous α-glucosidase (purified enzyme) (A0A0U2M4R6 entry or part of it): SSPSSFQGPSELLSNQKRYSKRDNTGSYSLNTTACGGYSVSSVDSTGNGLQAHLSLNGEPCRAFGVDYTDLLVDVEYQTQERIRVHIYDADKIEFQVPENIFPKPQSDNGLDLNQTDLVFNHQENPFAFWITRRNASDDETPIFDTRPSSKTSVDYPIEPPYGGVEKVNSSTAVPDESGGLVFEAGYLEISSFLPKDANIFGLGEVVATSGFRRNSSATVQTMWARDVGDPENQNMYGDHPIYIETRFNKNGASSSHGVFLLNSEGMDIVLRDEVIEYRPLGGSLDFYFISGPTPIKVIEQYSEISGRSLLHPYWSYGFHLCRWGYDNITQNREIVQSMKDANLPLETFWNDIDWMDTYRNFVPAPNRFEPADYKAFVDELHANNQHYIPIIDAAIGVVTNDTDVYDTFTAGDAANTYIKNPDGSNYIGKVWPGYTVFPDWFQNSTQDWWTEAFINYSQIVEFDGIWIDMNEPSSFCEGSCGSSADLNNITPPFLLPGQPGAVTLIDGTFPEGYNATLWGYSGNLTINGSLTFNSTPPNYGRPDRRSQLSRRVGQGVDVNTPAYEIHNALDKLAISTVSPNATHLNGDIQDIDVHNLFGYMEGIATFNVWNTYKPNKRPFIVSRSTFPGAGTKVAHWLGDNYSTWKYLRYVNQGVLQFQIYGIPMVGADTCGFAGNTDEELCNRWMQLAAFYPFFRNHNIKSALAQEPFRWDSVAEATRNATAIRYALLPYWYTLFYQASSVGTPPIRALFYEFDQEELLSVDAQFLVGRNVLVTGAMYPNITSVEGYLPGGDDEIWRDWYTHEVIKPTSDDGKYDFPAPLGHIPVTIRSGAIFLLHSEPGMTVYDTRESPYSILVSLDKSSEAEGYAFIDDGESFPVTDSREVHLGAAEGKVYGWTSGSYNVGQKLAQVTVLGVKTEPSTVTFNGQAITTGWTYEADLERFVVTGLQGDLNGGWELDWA
Procedure: The tests were carried out in 30 minutes and with 100 ng of enzyme for each reaction. The molecular weight of the starch, supplied by Avebe, is 8100 Da.

[5] = system: X. dendrorhous MYA-131; assay: Degradation of starch in the medium of an X. dendrorhous culture, quantified with Lugol's iodine; type: cell-based, Xanthophyllomyces dendrorhous
Procedure: X. dendrorhous MYA-131 grown in 100 ml of minimal medium with starch (MMS): 0.7% YNB (Yeast Nitrogen Base w/o Amino acids, DiFCO) (w/v), 2% starch (w/v), DIFCO) was cultured to produce α-glucosidase, and the culture continued for 150 hours. Cell growth was carried out and assessed as in the previous example. The stationary phase was reached after 75 hours of growth, at 3.4 ODU660. The cell-free fraction was obtained every 5-7 hours as in EXAMPLE 1.
To that end, 0.05 ml of the cell-free fraction was mixed with 0.05 ml of 50 mM sodium phosphate buffer, pH 5.5 0.1 ml of Lugol's iodine and 2.5 ml of water were added to 0.025 ml of this mixture. The polysaccharide was spectrophotometrically quantified at 595 nm using a standard starch curve (1-10 mg/ml). The 100% starch value was that assessed in the initial culture medium which was used to carry out the inoculum. By using this methodology, a decrease of the starch in the extracellular medium for the first 30 hours of culture was not observed. 10, 20, 40 and 60% reductions of the polysaccharide concentration were obtained at 50, 60, 70 and 80 hours of culture, respectively. The last value, 60%, remained constant during prolonged growths of up to 300 hours.

| Compound | composition of the system [1] [g/L] | Composition of the reaction mixture ([1]; reaction time 27 h) [grams/liter] | Composition of the reaction mixture ([1]; reaction time 117 h) [grams/liter] | Composition of the reaction mixture ([1]; reaction time 143 h) [grams/liter] | Composition of the reaction mixture ([1]; reaction time 216 h) [grams/liter] | Composition of the reaction mixture ([1]; reaction time 288 h) [grams/liter] | hydrolytic activity observed on substrate [2] | Specific activity [2] [U/μg] | Specific activity [3] [U/μg] | Vmax [4] [μg glucose min^−1] | further results |
| --- | --- | --- | --- | --- | --- | --- | --- | --- | --- | --- | --- |
| OC[C@H]1O[C@H](OC[C@H]2OC(O)[C@H](O)[C@@H](O)[C@@H]2O)[C@H](O)[C@@H](O)[C@@H]1O (stereo partly shown) [isomaltose] | 14.4 | 0 | 12.7 | 12.4 | 13.1 | 14.4 | No activity |  |  |  | α-glucosidase activity detected on substrate [3]: not detected |
| OC[C@H]1O[C@H](OC[C@H]2O[C@H](O[C@H]3[C@H](O)[C@@H](O)C(O)O[C@@H]3CO)[C@H](O)[C@@H](O)[C@@H]2O)[C@H](O)[C@@H](O)[C@@H]1O (stereo partly shown) [panose] | 21.2 | 5.7 | 14.7 | 16.1 | 18.9 | 21.2 |  |  |  |  |  |
| OC[C@H]1O[C@H](OC[C@H]2O[C@H](O[C@H]3[C@H](O)[C@@H](O)[C@@H](O[C@H]4[C@H](O)[C@@H](O)[C@@H](O)O[C@@H]4CO)O[C@@H]3CO)[C@H](O)[C@@H](O)[C@@H]2O)[C@H](O)[C@@H](O)[C@@H]1O [compound 7, α-D-Glu-(1→6)-α-D-Glu-(1→4)-α-D-Glu-(1→4)-α-D-Glu] | 17.6 | 0 | 8.8 | 10.1 | 14.5 | 17.6 |  |  |  |  |  |
| OC[C@H]1O[C@H](O[C@H]2[C@H](O)[C@@H](O)[C@@H](O[C@H]3[C@H](O)[C@@H](O)C(O)O[C@@H]3CO)O[C@@H]2CO)[C@H](O)[C@@H](O)[C@@H]1O (stereo partly shown) [maltotriose] | 35.9 | 26.3 | 42.6 | 42.8 | 39.3 | 35.9 |  | 647 | 18 | 12 |  |
| glycogen |  |  |  |  |  |  |  | 197 |  |  |  |
| dextran |  |  |  |  |  |  | No activity |  |  |  | α-glucosidase activity detected on substrate [3]: not detected |
| OC[C@H]1O[C@H](O[C@H]2[C@H](O)[C@@H](O)[C@@H](O[C@H]3[C@H](O)[C@@H](O)[C@@H](O[C@H]4[C@H](O)[C@@H](O)C(O)O[C@@H]4CO)O[C@@H]3CO)O[C@@H]2CO)[C@H](O)[C@@H](O)[C@@H]1O (stereo partly shown) [maltotetraose] | 15.4 | 0 | 11.0 | 12.4 | 15.1 | 15.4 |  |  |  |  |  |
| OC[C@H]1O[C@H](OC[C@H]2O[C@H](OC[C@H]3OC(O)[C@H](O)[C@@H](O)[C@@H]3O)[C@H](O)[C@@H](O)[C@@H]2O)[C@H](O)[C@@H](O)[C@@H]1O (stereo partly shown) [isomaltotriose] |  |  |  |  |  |  | No activity |  |  |  | α-glucosidase activity detected on substrate [3]: not detected |
| OC[C@H]1O[C@H](O[C@H]2[C@H](O)[C@@H](O)[C@@H](O[C@H]3[C@H](O)[C@@H](O)[C@@H](O[C@H]4[C@H](O)[C@@H](O)[C@@H](O[C@H]5[C@H](O)[C@@H](O)[C@@H](O[C@H]6[C@H](O)[C@@H](O)[C@@H](O[C@H]7[C@H](O)[C@@H](O)C(O)O[C@@H]7CO)O[C@@H]6CO)O[C@@H]5CO)O[C@@H]4CO)O[C@@H]3CO)O[C@@H]2CO)[C@H](O)[C@@H](O)[C@@H]1O (stereo partly shown) [maltoheptose] |  |  |  |  |  |  |  | 997 | 24 | 15 |  |
| maltodextrin |  |  |  |  |  |  |  | 747 | 21 |  |  |
| pullulan |  |  |  |  |  |  | No activity |  |  |  |  |
| starch |  |  |  |  |  |  |  |  | 23 | 4.29 | reduction of the polysaccharide concentration ([5]; 50 hours of culture): 10%; reduction of the polysaccharide concentration ([5]; 60 hours of culture): 20%; reduction of the polysaccharide concentration ([5]; 70 hours of culture): 40%; reduction of the polysaccharide concentration ([5]; 80 hours of culture, remained constant up to 300 hours): 60%; decrease of the starch in the extracellular medium ([5]; first 30 hours of culture): not observed; Kcat [4]: 1.43 s⁻¹; Km [4]: 880 µM |
| maltose | 69.2 | 183.4 | 103.0 | 94.4 | 78.1 | 69.2 |  | 1172 | 30 | 23 |  |

Source: patent publication US20090275085A1, “Enzyme for Obtaining Prebiotic Oligosaccharides” (CONSEJO SUPERIOR DE INVESTIGACIONES CIENTIFICAS, priority 2004, published 2009)
